Laboratory results reported in patent US20260144875A1, “COMPOSITIONS AND METHODS FOR CROSSLINKING STRUCTURAL PROTEINS” (ADS Therapeutics LLC, priority 2022, published 2026).

Assays:
[1] = Impurities from riboflavin tetrabutyrate in aqueous solution; assay type: physicochemical; conditions: PBS
Procedure: The impurities present in PBS solutions, with or without 10% hydroxy-propyl-beta-cyclodextrin (HP-β-CD) as solubilizer, at varying pH, with riboflavin tetrabutyrate (RTB) was investigated. Using similar sample analysis methods described in Examples 1a-1c, the impurities were determined.

[2] = Impurities from riboflavin tetrabutyrate in organic solvents; assay type: physicochemical; conditions: 25° C.; for Impur. 0 hr / Impur. 1 Month / Impur. 14 Days: RTB
Procedure: The impurities present in MCT, F6H8, or combinations, with riboflavin tetrabutyrate (RTB), at 25° C. was investigated. Using similar sample analysis methods described in Examples 1a-1c, the impurities were determined.

[3] = Sample YA1, HP-β-CD 10%, pH 5.0
[4] = Sample YA2, HP-β-CD 10%, pH 6.0
[5] = Sample YA3, HP-β-CD 10%, pH 7.0
[6] = Sample YA4, without HP-β-CD, pH 5.0
[7] = Sample YA5, without HP-β-CD, pH 6.0
[8] = Sample YA6, without HP-β-CD, pH 7.0
[9] = Sample YB1, 0.2%, MCT 100%, F6H8 0%
[10] = Sample YB2, 0.1%, MCT 70%, F6H8 30%
[11] = Sample YB3, 0.1%, MCT 50%, F6H8 50%

CCCC(=O)OC[C@@H](OC(=O)CCC)[C@@H](OC(=O)CCC)[C@H](Cn1c2nc(=O)[nH]c(=O)c-2nc2cc(C)c(C)cc21)OC(=O)CCC [RTB, (2R,3S,4S)-5-(7,8-dimethyl-2,4-dioxo-3,4-dihydrobenzo[g]pteridin-10(2H)-yl) pentane-1,2,3,4-tetrayl tetrabutyrate]
Other Impurities [1, 3]: 2.94% | Riboflavin [1, 3]: 0% | Riboflavin Tetrabutyrate [1, 3]: 96.28% | Other Impurities [1, 4]: 10.65% | Riboflavin [1, 4]: 2.45% | Riboflavin Tetrabutyrate [1, 4]: 87.2% | Other Impurities [1, 5]: 9.39% | Riboflavin [1, 5]: 2.03% | Riboflavin Tetrabutyrate [1, 5]: 88.58% | Other Impurities [1, 6]: 22.54% | Riboflavin [1, 6]: 7.24% | Riboflavin Tetrabutyrate [1, 6]: 70.22% | Other Impurities [1, 7]: 20.58% | Riboflavin [1, 7]: 7.52% | Riboflavin Tetrabutyrate [1, 7]: 71.90% | Other Impurities [1, 8]: 19.8% | Riboflavin [1, 8]: 8.92% | Riboflavin Tetrabutyrate [1, 8]: 71.30% | RTB 0 hr [2, 9]: 98.76% | RTB 1 Month [2, 9]: 98.71% | RTB 14 Days [2, 9]: 98.76% | Impur. 0 hr [2, 9]: 1.16% | Impur. 1 Month [2, 9]: 1.15% | Impur. 14 Days [2, 9]: 1.16% | RTB 0 hr [2, 10]: 98.85% | RTB 1 Month [2, 10]: 99.05% | RTB 14 Days [2, 10]: 98.94% | Impur. 0 hr [2, 10]: 1.14% | Impur. 1 Month [2, 10]: 0.95% | Impur. 14 Days [2, 10]: 1.06% | RTB 0 hr [2, 11]: 98.87% | RTB 1 Month [2, 11]: 98.99% | RTB 14 Days [2, 11]: 98.92% | Impur. 0 hr [2, 11]: 1.13% | Impur. 1 Month [2, 11]: 1.02% | Impur. 14 Days [2, 11]: 1.07%
